Read-outs that look alike come from different tables or passages of the source.
Tests used:
[1] = tested on: ERα-mediated transcription (3xERE-luciferase), T47D-KBluc cells; assay: ER-dependent transcriptional activity, 3xERE-luciferase reporter in T47D-KBluc cells; conditions: for effect on E2-induced luciferase activity: until dropping to 20% Emax
SK-BR-3 cells = assay: MTT cell viability assay; type: cell-based, human; conditions: 10%FBS growth media
Procedure: (§1) Straightforward, the tetrazolium salt 3-(4,5-methyltiazol-2yl-)-2,5diphenyl-tetrazolium bromide (MTT) (Applichen, Darmstadt, Germany) was added to cells, incubated for 2–4 h at 37 °C, and lysed in 10% SDS.

MDA-MB-231 cells = assay: MTT cell viability assay; type: cell-based, human; conditions: 10%FBS growth media
Procedure: as §1

Ishikawa cells = assay: MTT cell viability assay; type: cell-based, human; conditions: read-out: IC50 (μM) ISHIKAWA, 72 h, 10%FBS growth media
Procedure: as §1

BT-549 cells = assay: MTT cell viability assay; type: cell-based, human; conditions: 10%FBS growth media
Procedure: as §1

MCF-7 cells = assay: MTT cell viability assay; type: cell-based, human; conditions: 10%FBS growth media
Procedure: as §1

MCF-7/BUS cells = assay: MTT cell viability assay; type: cell-based, human; conditions: 72 h, read-out: IC50 (μM) MCF-7/BUS
Procedure: as §1

Hs-578T cells = assay: MTT cell viability assay; type: cell-based, human; conditions: 72 h, 10%FBS growth media
Procedure: as §1

MCF-10A cells = assay: MTT cell viability assay; type: cell-based, human; conditions: 72 h, 10%FBS growth media
Procedure: as §1

[2] = tested on: T47D estrogen-depleted cells; assay: E2-induced proliferation of estrogen-depleted cells (AUC of growth kinetics); type: cell-based; conditions: for EC50: Homo sapiens, T47D, 240 h, read-out: AUC (%) EC50 (μM)
Procedure: To monitor long-term growth, human ER+ BC (T47-D, MCF-7, MCF-7/BUS), ER+ endometrial (Ishiwaka, High Point, NC, USA), or non-malignant breast (MCF-10A) cells were seeded at 3000–6000 cells per well. […] When indicated, cells were estrogen-deprived in a 10DCC-FBS supplemented medium for one week. […] Cytotoxicity was monitored by using YOYO-1 (Invitrogen, Waltham, MA, USA). Cell proliferation and cytotoxicity were monitored by sequential real-time microphotographs in an IncuCyte HD real-time imaging system (Essen BioScience, Hertfordshire, UK) for 5–10 days. The area under the curve (AUC) was then analyzed to know both the kinetics and dose-effect relationships. […] Next, cells were treated with VEH (0.05% DMSO) or test compounds for 5–10 days. Spheroid size and cell cytotoxicity were recorded with the Incucyte SX5 Live-Cell Analysis Instrument (Sartorius AG, Göttingen, Germany). To calculate the spheroid growth area, confluence measurements were taken considering the largest brightfield object area (µm^2). Cytotoxicity was monitored by using YOYO-1 (Essen Bioscience, Hertfordshire, UK).

T47D cells = assay: MTT cell viability assay; type: cell-based, human; conditions: 72 h, 10%FBS growth media
Procedure: Straightforward, the tetrazolium salt 3-(4,5-methyltiazol-2yl-)-2,5diphenyl-tetrazolium bromide (MTT) (Applichen, Darmstadt, Germany) was added to cells, incubated for 2–4 h at 37 °C, and lysed in 10% SDS. The mitochondrial metabolization of the tetrazolium salt was determined by the analysis of the optical density at 595 nm, measured with the iMark microplate Reader (Bio–Rad, Irvine, CA, USA).

[3] = tested on: ERα, pS2 and PR mRNA in Ishikawa cells; assay: Quantitative real-time PCR of ERα-regulated genes; type: cell-based, human; conditions: 3 h pretreatment, E2 10 nM 24 h
Procedure: (§2) For gene expression analysis, MCF-7 and Ishikawa cells were deprived of steroid hormones by using a 10DCC-FBS medium for five days. Then, 1,500,000 cells/dish were seeded in 5DCC-FBS, followed by treatment with test compounds. Total RNA was isolated by using TRItidy G™ (Panreac Applichem ITW Reagents, Darmstadt, Germany). The concentration and purity of RNA were determined with a NanoDrop 1000 spectrophotometer (Wilmington, NC, USA). Then, 1 µg of total RNA was reversed and amplified with the iScriptTM kit (Bio-Rad) following the manufacturer’s protocol. SYBR Green PCR Master mix (Applied Biosystems, Bedford, MA, USA) reagent and exon-specific primers for ERα were used for Real-time quantitative PCR (qPCR). Gene expression was analyzed with an Mx3005P qPCR System (Agilent, Santa Clara, CA, USA), and cycle threshold values were calculated using MxPro qPCR Software (Agilent, CA, USA). Target gene expression was normalized to the expression of the 18S housekeeping gene. Data were expressed as relative expression values according to the comparative CT method for qPCR [42].

[4] = tested on: ERα, pS2 and PR mRNA in MCF-7 cells; assay: Quantitative real-time PCR of ERα-regulated genes; type: cell-based, human; conditions: 3 h pretreatment, E2 10 nM 24 h; 32 5 µM, 35 10 µM, ICI 0.1 µM, 4-OHTAM 1 µM
Procedure: as §2

VERO cells = assay: MTT cell viability assay; type: cell-based, monkey; conditions: 72 h, 10%FBS growth media
Procedure: as §1

[5] = tested on: alkaline phosphatase (ALP) activity in Ishikawa cells; assay: Alkaline phosphatase assay; type: cell-based, human; conditions: E2 10 nM
Procedure: Human endometrium cells ([…]) were cultured in MEM without phenol red with Earle's Salts culture, which was supplemented with estrogen-deprived 10 DCC-FBS du-ring 5 days. […] Cells were washed with ice-cold PBS, and Alkaline Phosphatase (ALP) activity was measured by using ALP Assay Kit (Abcam, Cambridge, MA, USA). The substrate p-nitrophenyl phosphate (pNPP) and the ALP enzyme were used to detect ALP activity by the analysis of the optical density at 405 nm in the iMark microplate Reader (Bio-Rad, Irvine, CA, USA). […] Protein concentration was quantified with the bicinchoninic acid assay (BCA) kit (Bio-Rad).

[6] = tested on: glucocorticoid receptor (GR)-dependent transcriptional activity, MDA-kb2 cells; assay: GR-mediated transcription, luciferase reporter in MDA-kb2 cells (dexamethasone); conditions: DEX 100 nM

Row | SMILES | effect on E2-induced luciferase activity [1] | IC50 (SK-BR-3 cells; Homo sapiens, SK-BR-3, 72 h) | IC50 (MDA-MB-231 cells; Homo sapiens, MDA-MB-231, 72 h) | IC50 (MCF-7 cells; Homo sapiens, MCF7, 72 h) | IC50 (Hs-578T cells; Homo sapiens, Hs-578T) | IC50 (T47D cells; Homo sapiens, T47D) | IC50 (Ishikawa cells; Homo sapiens, Ishikawa) | also measured
1 | COc1ccc(C2=CC(O)(c3cccc([N+](=O)[O-])c3)N(Cc3ccccc3)C2=O)cc1 (stereo not drawn) [compound 40, 1-benzyl-5-hydroxy-3-(4-methoxyphenyl)-5-(3-nitrophenyl)-1H-pyrrol-2(5H)-one] | reduced E2-induced luciferase activity | – | – | – | – | – | – | –
2 | C[C@]12CC[C@@H]3c4ccc(O)cc4C[C@@H](CCCCCCCCC[S+]([O-])CCCC(F)(F)C(F)(F)F)[C@H]3[C@@H]1CC[C@@H]2O (stereo partly drawn) [ICI, ICI-182,780, reference compound] | – | – | – | – | – | – | – | IC50 (SK-BR-3 cells; 72 h): > 50 µM; IC50 (MDA-MB-231 cells; 72 h): > 25 µM; IC50 (Ishikawa cells): > 10 µM; IC50 (BT-549 cells; 72 h): > 25 µM; IC50 (MCF-7 cells; 72 h): 0.52 ± 0.16 µM; IC50 (MCF-7/BUS cells; 10%FBS growth media, MTT): 0.0006 µM; IC50 (Hs-578T cells): > 25 µM; IC50 (MCF-10A cells): > 10 µM; IC50 ([2]; presence of E2 (0.1 nM), 10 days): 0.000283 µM; IC50 (T47D cells): 14.9 ± 5.19 µM; E/Emax (%) VEH ([1]; compounds 10 µM, 3 h pretreatment, then vehicle 16–24 h, relative to Emax of E2): −9.15 ± 3.99%; IC50 ([1]; read-out: IC50 (µM) on E2-induced luciferase activity, dose-response, 3 h pretreatment, then E2 0.1 nM 16–24 h): 0.00019 µM; IC50 ([1]; read-out: IC50 on E2-induced ER-dependent transcriptional activity, co-incubation with E2): 0.0002 ± 8e-05 µM; effect on E2-induced mRNA expression [3]: blocked E2-induced mRNA levels of PR and pS2; effect on E2-induced mRNA expression [4]: blocked E2-induced mRNA levels of PR and pS2; IC50 (VERO cells): > 10 µM
3 | C[C@]12CC[C@@H]3c4ccc(O)cc4CC[C@H]3[C@@H]1CC[C@@H]2O [E2, 17β-estradiol, reference compound] | – | – | – | – | – | – | – | EC50 [2]: 0.0071 nM; maximal activity (Emax) reached by E2 ([1]; E2+VEH): 104.90 ± 2.01%; EC50 ([1]; Homo sapiens, read-out: EC50 of E2, ER-dependent transcriptional activity, E2 alone (E2+VEH)): 4.48 ± 0.42 pM; Emax ([1]; Homo sapiens, read-out: maximal activity (Emax) reached by E2, E2+VEH): 99.8 ± 8.44%; maximal luciferase activity or Emax ([1]; induced by E2): 15.19 ± 1.71 fold induction; EC50 ([1]; read-out: EC50 of E2, ER-dependent transcriptional activity, E2 alone (E2+VEH)): 4.57 ± 0.42 pM; increase of ALP activity [5]: 30 fold
4 | COc1ccc(N2C(=O)C(c3ccccc3)=CC2(O)c2ccc(OC)cc2)cc1 (stereo not drawn) [compound 9, 5-hydroxy-1,5-bis(4-methoxyphenyl)-3-phenyl-1H-pyrrol-2(5H)-one] | – | > 10 µM | > 10 µM | > 10 µM | > 10 µM | > 10 µM | – | IC50 (BT-549 cells; Homo sapiens, BT-549, 72 h): > 10 µM; IC50 (MCF-7/BUS cells; Homo sapiens, MCF7/BUS): > 10 µM
5 | C[C@@H]1C[C@H]2[C@@H]3CCC4=CC(=O)C=C[C@]4(C)[C@@]3(F)[C@@H](O)C[C@]2(C)[C@@]1(O)C(=O)CO [DEX, dexamethasone, reference compound] | – | – | – | – | – | – | – | maximal luciferase activity or Emax [6]: 42.07 ± 14.33 fold induction
6 | O=C1C(c2ccccc2)=CC(O)(c2ccccc2)N1C1CCCCC1 (stereo not drawn) [compound 4, 1-cyclohexyl-5-hydroxy-3,5-diphenyl-1H-pyrrol-2(5H)-one] | reduced E2-induced luciferase activity | > 10 µM | > 10 µM | > 10 µM | > 10 µM | > 10 µM | > 10 µM | IC50 (MCF-10A cells; Homo sapiens, MCF-10A): 7.17 ± 2.07 µM; IC50 (VERO cells; Primates, Vero): > 25 µM
7 | COc1cccc(C2=CC(O)(c3ccc([N+](=O)[O-])cc3)N(Cc3ccccc3)C2=O)c1 (stereo not drawn) [compound 46, 1-benzyl-5-hydroxy-3-(3-methoxyphenyl)-5-(4-nitrophenyl)-1H-pyrrol-2(5H)-one] | reduced E2-induced luciferase activity | – | – | – | – | – | – | –
8 | COc1ccc(N2C(=O)C(c3ccccc3OC)=CC2(O)c2ccc([N+](=O)[O-])cc2)cc1 (stereo not drawn) [compound 50, 5-hydroxy-3-(2-methoxyphenyl)-1-(4-methoxyphenyl)-5-(4-nitrophenyl)-1H-pyrrol-2(5H)-one] | reduced E2-induced luciferase activity | > 10 µM | – | 6.17 ± 2.66 µM | – | – | – | –
9 | COc1ccc(C2=CC(O)(c3ccccc3)N(C3CCCCC3)C2=O)cc1F (stereo not drawn) [compound 16, 1-cyclohexyl-3-(3-fluoro-4-methoxyphenyl)-5-hydroxy-5-phenyl-1H-pyrrol-2(5H)-one] | – | > 10 µM | > 10 µM | > 10 µM | > 10 µM | > 10 µM | > 10 µM | IC50 (BT-549 cells; Homo sapiens, BT-549, 72 h): > 10 µM; IC50 (MCF-7/BUS cells; Homo sapiens, MCF7/BUS): > 10 µM; estrogenic effect on ER-dependent transcriptional activity ([1]; 10 μM, absence of E2): partial induction of ER-dependent transcriptional activity
10 | O=C1C(c2ccc3c(c2)OCO3)=CC(O)(c2ccccc2)N1Cc1ccccc1 (stereo not drawn) [compound 26, 3-(benzo[d][1,3]dioxol-5-yl)-1-benzyl-5-hydroxy-5-phenyl-1H-pyrrol-2(5H)-one] | reduced E2-induced luciferase activity | > 10 µM | 9.71 ± 0.3 µM | > 10 µM | > 10 µM | > 10 µM | 10.1 ± 0.11 µM | –
11 | COc1ccc(N2C(=O)C(c3cccc([N+](=O)[O-])c3)=CC2(O)c2cccc(OC)c2)cc1 (stereo not drawn) [compound 38, 5-hydroxy-5-(3-methoxyphenyl)-1-(4-methoxyphenyl)-3-(3-nitrophenyl)-1H-pyrrol-2(5H)-one] | reduced E2-induced luciferase activity | > 10 µM | > 10 µM | > 10 µM | > 10 µM | > 10 µM | > 10 µM | IC50 (MCF-10A cells; Homo sapiens, MCF-10A): > 10 µM; IC50 (VERO cells; Primates, Vero): > 25 µM
12 | COc1ccc(C2(O)C=C(c3ccccc3)C(=O)N2Cc2ccccc2)cc1 (stereo not drawn) [compound 8, 1-benzyl-5-hydroxy-5-(4-methoxyphenyl)-3-phenyl-1H-pyrrol-2(5H)-one] | reduced E2-induced luciferase activity | – | – | – | – | – | – | –
13 | CCCc1c(-c2ccc(O)cc2)nn(-c2ccc(O)cc2)c1-c1ccc(O)cc1 [PPT, 1,3,5-tris(4-hydroxyphenyl)-4-propyl-1H-pyrazole, reference compound] | – | – | – | – | – | – | – | EC50 [2]: 0.157 nM

Reference: publication PMC9655618 (Cancers, 2022)
